What was measured:
Format in all cases: cell-based
hGABAA α1β3γ2 [1] = biological target: T1, hGABAA α1β3γ2 (Homo sapiens, UniProt P14867+P18507+P28472); test: hGABAA α1β3γ2 IonFlux HT Agonist Assay; set-up: activation of hGABAA α1β3γ2 ion channel currents / activation: dose or concentration left out as unconfirmed; settings: for activation / activation at 0.3 µM / activation at 1 µM / activation at 3 µM / activation at 10 µM / activation at 30 µM / activation at 100 µM / activation at 300 µM: read-out: Normalized Percentage Activation Mean
T1 sequence (P14867 28-456): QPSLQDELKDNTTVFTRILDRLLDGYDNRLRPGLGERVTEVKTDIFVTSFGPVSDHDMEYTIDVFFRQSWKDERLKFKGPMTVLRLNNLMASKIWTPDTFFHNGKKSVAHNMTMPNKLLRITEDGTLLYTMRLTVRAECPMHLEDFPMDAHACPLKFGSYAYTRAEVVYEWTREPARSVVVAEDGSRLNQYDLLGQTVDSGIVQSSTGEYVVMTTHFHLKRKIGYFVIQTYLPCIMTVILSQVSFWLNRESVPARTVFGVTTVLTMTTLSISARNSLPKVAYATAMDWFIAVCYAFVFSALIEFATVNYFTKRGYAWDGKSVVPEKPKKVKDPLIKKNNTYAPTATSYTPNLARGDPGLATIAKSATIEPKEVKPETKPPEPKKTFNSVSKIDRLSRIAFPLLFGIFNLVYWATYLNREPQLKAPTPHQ
T1 sequence (P28472 26-473): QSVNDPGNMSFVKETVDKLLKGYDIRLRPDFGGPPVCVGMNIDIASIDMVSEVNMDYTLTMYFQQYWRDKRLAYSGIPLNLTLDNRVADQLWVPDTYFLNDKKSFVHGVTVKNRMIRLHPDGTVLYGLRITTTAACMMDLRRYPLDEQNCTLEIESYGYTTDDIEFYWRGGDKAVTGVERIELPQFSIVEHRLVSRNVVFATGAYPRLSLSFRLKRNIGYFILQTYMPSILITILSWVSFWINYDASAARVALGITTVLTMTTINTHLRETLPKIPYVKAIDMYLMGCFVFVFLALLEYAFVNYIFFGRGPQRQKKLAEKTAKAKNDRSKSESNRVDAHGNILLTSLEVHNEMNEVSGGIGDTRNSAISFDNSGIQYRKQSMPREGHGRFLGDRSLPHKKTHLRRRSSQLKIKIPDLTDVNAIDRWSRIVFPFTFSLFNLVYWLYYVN
T1 sequence (P18507 40-475): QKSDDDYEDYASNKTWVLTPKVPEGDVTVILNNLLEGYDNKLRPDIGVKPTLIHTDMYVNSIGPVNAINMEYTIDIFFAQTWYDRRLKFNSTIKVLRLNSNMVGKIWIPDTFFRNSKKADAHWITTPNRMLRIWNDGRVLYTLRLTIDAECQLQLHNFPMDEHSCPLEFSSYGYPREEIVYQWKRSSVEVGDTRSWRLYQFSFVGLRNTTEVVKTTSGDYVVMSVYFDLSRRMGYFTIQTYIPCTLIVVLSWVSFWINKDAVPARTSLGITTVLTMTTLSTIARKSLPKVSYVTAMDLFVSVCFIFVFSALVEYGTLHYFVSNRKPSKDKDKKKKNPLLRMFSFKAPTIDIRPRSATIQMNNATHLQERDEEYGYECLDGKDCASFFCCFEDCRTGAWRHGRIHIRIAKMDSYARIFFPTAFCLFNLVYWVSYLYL
Experimental: Ligand-gated ion channel targets were hGABAA α2β3γ2 and hGABAA α1β3γ2. Electrophysiological assays conducted to profile two compounds for agonist activities on hGABAA α2β3γ2 and seven compounds for agonist activities on hGABAA α1β3γ2 using the IonFlux HT electrophysiological platform.
The parameters measured are described in the Data Analysis section. […] Note: The test compounds was applied over two (2) ‘experimental patterns’ in increasing concentrations.
The supplied compound was prepared in DMSO to concentrations that were 300× the final assay concentrations. Aliquots were taken out and diluted 300× into external buffer to give the final assay concentration. At wells included a final DMSO concentration of 0.33% including all control wets.
All recordings were obtained from a holding potential of −60 mV. The compound addition sequence that was used for all additions was the same for all assays. […] Each test concentration of compound was applied for 2 seconds followed by 60 seconds wash. The process was repeated with the next ascending concentration of test compound. The test compounds were applied over two (2) ‘experimental patterns’ in increasing concentrations (FIG. 11).
AM data were first exported to an Excel compatible data file and then analyzed using Graph Pad Prism software.

hGABAA α2β3γ2 = hGABAA α2β3γ2 (Homo sapiens, UniProt P18507+P28472+P47869); test: hGABAA IonFlux HT PAM Assay, α2β3γ2; settings: for Mean Maximal Effect (% of Control): normalized to baseline peak current induced by EC20 GABA (0.8 μM) for 2 seconds
Sequence of hGABAA α2β3γ2 (P47869 29-451): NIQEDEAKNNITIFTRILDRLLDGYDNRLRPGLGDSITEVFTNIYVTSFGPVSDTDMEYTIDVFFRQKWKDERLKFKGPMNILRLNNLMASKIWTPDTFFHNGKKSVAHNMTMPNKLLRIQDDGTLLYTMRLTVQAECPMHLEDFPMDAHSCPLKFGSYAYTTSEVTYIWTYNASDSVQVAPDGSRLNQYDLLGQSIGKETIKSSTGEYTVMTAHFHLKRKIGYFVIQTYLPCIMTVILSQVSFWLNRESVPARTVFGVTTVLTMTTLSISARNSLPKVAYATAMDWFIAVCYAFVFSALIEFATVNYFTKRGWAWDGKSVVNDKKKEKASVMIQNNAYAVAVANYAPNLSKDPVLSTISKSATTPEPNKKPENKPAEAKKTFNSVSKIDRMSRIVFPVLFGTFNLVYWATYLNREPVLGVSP
Sequence of hGABAA α2β3γ2 (P28472 26-473): as the sequence (P28472 26-473) above
Sequence of hGABAA α2β3γ2 (P18507 40-475): as the sequence (P18507 40-475) above
From the text: (§1) Ligand-gated ion channels targeted were hGABAA α1β3γ2 and hGABAA α2β3γ2.
(§2) Electrophysiological assays conducted to profile nine (9) compounds for activities on the on channel targets listed above for Positive Allosteric Modulator (PAM) activities using the IonFlux HT electrophysiological platform.
The parameters measured are described in the Data Analysis section. […] Open circles represent data that has been excluded from the curve fitting. Where no curve fit was possible, n/c (not calculable) is listed.
(§3) All wells included a final DMSO concentration of 0.33% including all control wells.
(§4) All recordings were obtained from a holding potential of −60 mV. The compound addition sequence that was used for all additions was the same for all assays. […] The process was repeated with the next ascending concentration of test compound (FIG. 1).
(§5) All data were first exported to an Excel compatible data file and then analyzed using Graph Pad Prism software.

hGABAA α1β3γ2 [2] = biological target: T1, hGABAA α1β3γ2; test: hGABAA IonFlux HT PAM Assay, α1β3γ2; settings: for Mean Maximal Effect (% of Control): normalized to baseline peak current induced by EC20 GABA (1 μM) for 2 seconds
From the text: as §1, §2
The parameters measured are described in the Data Analysis section.
as §3, §4, §5

[3] = positive modulation of EC20 GABA current
[4] = Estimated EC50, positive modulation of EC20 GABA current

Structure (SMILES)	activation of hGABAA α1β3γ2 ion channel currents (hGABAA α1β3γ2 [1])	EC50 (hGABAA α1β3γ2 [1]; agonist activation of channel currents, read-out: Estimated EC50) [µM]	activation (hGABAA α1β3γ2 [1]) [%]	activation at 0.3 µM (hGABAA α1β3γ2 [1]) [%]	activation at 1 µM (hGABAA α1β3γ2 [1]) [%]	activation at 3 µM (hGABAA α1β3γ2 [1]) [%]	activation at 10 µM (hGABAA α1β3γ2 [1]) [%]	activation at 30 µM (hGABAA α1β3γ2 [1]) [%]	activation at 100 µM (hGABAA α1β3γ2 [1]) [%]	activation at 300 µM (hGABAA α1β3γ2 [1]) [%]	Mean Maximal Effect (% of Control) (hGABAA α2β3γ2)	Estimated EC50 (hGABAA α2β3γ2; [3])	Mean Maximal Effect (% of Control) (hGABAA α1β3γ2 [2])	Estimated EC50 (hGABAA α1β3γ2 [2]; [3])	EC50 (hGABAA α1β3γ2 [1]) [µM]	EC50 (hGABAA α2β3γ2; [4]) [µM]	EC50 (hGABAA α1β3γ2 [2]; [4]) [µM]
CN(C)CCN(C)C(=O)CC1c2nccnc2C(=O)N1c1ccc(Cl)cn1 (stereo not shown) [Compound 6]	did not activate	> 1000	2.08	1.59	2.06	1.9	1.89	1.74	1.95	2.19	122 % of Control	n/c	130 % of Control	n/c			
CCN(CCN(C)C)C(=O)OC1c2nccnc2C(=O)N1c1ccc(Cl)cn1 (stereo not shown) [Compound 4]	did not activate		4.45	5.26	5.13	5.89	5.68	6.45	5.97	5.85	126 % of Control		170 % of Control		> 1000	5.8	2.47

From patent US12084451B2, “Compositions and methods for reducing tactile dysfunction, anxiety, and social impairment” (President and Fellows of Harvard College, priority 2018, dated 2024)
